The source of these data is patent US20240294895A1, “ENZYMATIC COMPOSITIONS FOR CARBOHYDRATE ANTIGEN CLEAVAGE ON DONOR ORGANS, METHODS AND USES ASSOCIATED THEREWITH” (THE UNIVERSITY OF BRITISH COLUMBIA, priority 2018, published 2024).

What all share (format): biochemical
For test [1], the system named is Flavonifractor plautii GalNAcDeacetylase FpGalNAcDeAc_D1min, mutant C99A. The experiment in a line: Cleavage of A antigen Type2tetra-MU by FpGalNAcDeAc_D1min C99A. Conditions: pH 7.4, 37° C. As to the method: (§1) kcat/KM parameter were determined for A antigen subtype 1/2/4tetra-MU at pH 7.4 at 37° C. Reactions (total volume of 100 μL) were performed in black 96-plate wells and as coupled assays in 100 mM NaH2PO4 (pH 7.4) with 12 nM FpGalNAcDeacetylase 0.1 mg/mL SpHex, BgaC (BgaA for subtype II), AfcA, at varying concentrations of substrate (25 μM, 20 μM, 15 μM, 10 μM, 7.5 μM, 5 μM). The reactions were run as a series of four with controls (no FpGalNAcDeacetylase) as duplicates. The fluorescence signal (365/435 nm) resulting from MU release by hydrolysis was monitored on a Synergy H1™ plate reader (BioTek™) and converted to concentration using MU standard concentration curves determined under identical reaction conditions. Initial rates (μM/s) were determined and plotted in Grafit™ 7.0 to determine the kcat/KM (s^−1*mM^−1) parameters.
(§2) Based on structural information (not shown) and sequence alignment (not shown) FpGalNAcDeAc_D1min and FpGalNase_truncA were mutated using the QuickChange™ protocol (Zhang 2004), utilizing the primers noted in TABLE B. The mutants were purified via NiNTA and HIC columns as described above. The structural integrity of all mutants was checked via CD spectroscopy; all tested enzymes were structurally similar to their wild-type. […]

The subject of test [2] is Flavonifractor plautii GalNAcDeacetylase FpGalNAcDeAc_D1min, mutant C99S. As to the kind of experiment: Cleavage of A antigen Type2tetra-MU by FpGalNAcDeAc_D1min C99S. Conditions: pH 7.4, 37° C. As to the method:
as §1, §2

Test [3] deals with Flavonifractor plautii GalNAcDeacetylase FpGalNAcDeAc_D1min, mutant D100N. As to the kind of experiment: Cleavage of A antigen Type2tetra-MU by FpGalNAcDeAc_D1min D100N. Conditions: substrate depletion method for low-activity mutants. As to the method:
kcat/KM parameter were determined for A antigen subtype 1/2/4tetra-MU at pH 7.4 at 37° C. […] The reactions were run as a series of four with controls (no FpGalNAcDeacetylase) as duplicates. The fluorescence signal (365/435 nm) resulting from MU release by hydrolysis was monitored on a Synergy H1™ plate reader (BioTek™) and converted to concentration using MU standard concentration curves determined under identical reaction conditions. […]
Based on structural information (not shown) and sequence alignment (not shown) FpGalNAcDeAc_D1min and FpGalNase_truncA were mutated using the QuickChange™ protocol (Zhang 2004), utilizing the primers noted in TABLE B. The mutants were purified via NiNTA and HIC columns as described above. The structural integrity of all mutants was checked via CD spectroscopy; all tested enzymes were structurally similar to their wild-type. For mutants with relatively low activity, reactions were carried out under the same conditions used for full kinetic determinations; however the substrate depletion method was used for determination of kcat/KM values as has been previously described (Vocadlo 2002). In brief: at low concentrations of substrate where [Substrate]<KM (equivalent to ˜⅕- 1/10 of Km) the kcat/KM value can be approximated upon non-linear fitting of the reaction time course to a first order curve and dividing by the enzyme concentration.

Test [4] relates to Flavonifractor plautii GalNAcDeacetylase FpGalNAcDeAc_D1min, mutant H252A. The experiment in a line: Cleavage of A antigen Type2tetra-MU by FpGalNAcDeAc_D1min H252A. Conditions: substrate depletion method for low-activity mutants. The protocol: as §1, §2
For test [5], the system named is Flavonifractor plautii GalNAcDeacetylase FpGalNAcDeAc_D1min, mutant H252F. As to the kind of experiment: Cleavage of A antigen Type2tetra-MU by FpGalNAcDeAc_D1min H252F. As to conditions: substrate depletion method for low-activity mutants. The protocol: as §1, with “Initial rates (μM/s) were determined and plotted in Grafit™ 7.0 to determine the kcat/KM (s^−1*mM^−1) parameters.” left out
as §2

Test [6] has as its system Flavonifractor plautii GalNAcDeacetylase FpGalNAcDeAc_D1min, mutant Y315F. The experiment in a line: Cleavage of A antigen Type2tetra-MU by FpGalNAcDeAc_D1min Y315F. Conditions: substrate depletion method for low-activity mutants. As to the method:
as §1, §2

In test [7] the target is T1, Flavonifractor plautii Galactosaminidase (FpGalNase), full length, SEQ ID NO: 7, 9, 10 (Flavonifractor plautii, UniProt P0DTR5).
T1 sequence (P0DTR5 with tags, fused parts or gaps): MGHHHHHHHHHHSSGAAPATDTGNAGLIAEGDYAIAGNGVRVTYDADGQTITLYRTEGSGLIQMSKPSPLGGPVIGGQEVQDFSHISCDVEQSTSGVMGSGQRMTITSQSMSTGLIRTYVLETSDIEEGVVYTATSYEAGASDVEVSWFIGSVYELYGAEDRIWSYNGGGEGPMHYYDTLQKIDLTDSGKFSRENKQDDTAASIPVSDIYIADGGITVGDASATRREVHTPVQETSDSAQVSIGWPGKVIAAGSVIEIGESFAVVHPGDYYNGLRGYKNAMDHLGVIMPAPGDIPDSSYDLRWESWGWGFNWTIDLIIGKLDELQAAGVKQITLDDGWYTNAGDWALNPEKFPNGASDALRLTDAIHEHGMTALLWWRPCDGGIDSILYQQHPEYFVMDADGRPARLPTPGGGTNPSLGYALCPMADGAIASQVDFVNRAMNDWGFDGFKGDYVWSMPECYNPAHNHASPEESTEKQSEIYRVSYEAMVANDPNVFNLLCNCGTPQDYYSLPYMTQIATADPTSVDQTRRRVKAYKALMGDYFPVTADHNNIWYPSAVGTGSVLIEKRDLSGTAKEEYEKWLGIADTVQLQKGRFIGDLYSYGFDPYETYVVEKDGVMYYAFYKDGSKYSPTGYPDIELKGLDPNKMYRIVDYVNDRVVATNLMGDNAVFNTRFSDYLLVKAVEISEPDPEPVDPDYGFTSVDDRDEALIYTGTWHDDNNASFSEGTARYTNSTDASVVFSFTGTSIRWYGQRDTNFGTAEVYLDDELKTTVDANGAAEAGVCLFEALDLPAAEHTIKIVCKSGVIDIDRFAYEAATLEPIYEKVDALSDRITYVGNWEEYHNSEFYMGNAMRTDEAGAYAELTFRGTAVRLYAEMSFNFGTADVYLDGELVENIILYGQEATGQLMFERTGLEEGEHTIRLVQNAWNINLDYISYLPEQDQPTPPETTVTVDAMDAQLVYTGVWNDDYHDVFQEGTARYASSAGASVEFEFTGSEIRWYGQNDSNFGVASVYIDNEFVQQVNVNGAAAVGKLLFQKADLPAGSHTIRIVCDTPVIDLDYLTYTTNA
The experiment in a line: Kinetic parameters of FpGalNase full length (MU or pNP release). Conditions: versus corresponding GalN-antigen. As to the method:
All kinetic assays utilizing 4-methylumbelliferone as leaving group were performed through measurement of fluorescence. To avoid measurement errors based on the inner filter effect (Palmier 2007) standard curves were used to validate the linear range of the fluorophore.
Michaelis-Menten parameter was determined for GalN antigen subtype 1penta-MU and A antigen subtype 1penta-MU in 100 mM NaH2PO4, pH 7.4 at 37° C. Reaction was performed in 100 μl with 3.4 nM FpGalactosaminidase (5.31 nM FpGalNase_truncA) and 0.1 mg/mL SpHex, AfcA, 0.2 mg/mL BgaC and varying concentrations of substrate (5 μM-2 mM). The reactions were run as a series of four with controls (no FpGalactosaminidase) as duplicates. The fluorescence signal (365/435 nm) resulting from MU release by hydrolysis was monitored by Synergy H1™ plate reader [BioTek™] and converted to concentration using MU standard concentration curves determined under identical reaction conditions. Initial rates (μM/s) were determined and plotted in Grafit 7.0™ to determine the kinetic parameters.
kcat/KM parameter was determined for GalN antigen subtype 1/2/4tetra-MU and B antigen subtype 1tetra-MU at pH 7.4 and 37° C. […] Initial rates (μM/s) were determined and plotted in Grafit 7.0™ to determine the kcat/KM (s^−1*mM^−1) parameters. […]

Consider `CC(=O)N[C@H]1[C@H](Oc2ccc3c(C)cc(=O)oc3c2)O[C@H](CO)[C@@H](O[C@@H]2O[C@H](CO)[C@H](O)[C@H](O[C@H]3O[C@H](CO)[C@H](O)[C@H](O)[C@H]3NC(C)=O)[C@H]2O[C@@H]2O[C@@H](C)[C@@H](O)[C@@H](O)[C@@H]2O)[C@@H]1O` [A antigen Type2tetra-MU], for which the catalytic efficiency (kcat/Km) came out at 2344.67 ± 96.63 M⁻¹ s⁻¹ in test [1]; 1259.9 ± 41.52 M⁻¹ s⁻¹ in test [2]; 1.22 ± 0.083 M⁻¹ s⁻¹ in test [3]; 1.4 ± 0.2 M⁻¹ s⁻¹ in test [4]; 0.5 ± 0.033 M⁻¹ s⁻¹ in test [5]; 2.78 ± 0.65 M⁻¹ s⁻¹ in test [6].

Consider `CC(=O)N[C@H]1[C@H](Oc2ccc3c(C)cc(=O)oc3c2)O[C@H](CO)[C@@H](O)[C@@H]1O[C@@H]1O[C@H](CO)[C@H](O)[C@H](O[C@H]2O[C@H](CO)[C@H](O)[C@H](O)[C@H]2O)[C@H]1O[C@@H]1O[C@@H](C)[C@@H](O)[C@@H](O)[C@@H]1O` [B antigen Type1tetra-MU], for which the “kcat/KM for cleavage of B-antigen, times lower than for the corresponding GalN-antigen” value in test [7] was “over 2000 times lower”.

In general, kcat/Km refers to the second-order rate constant that governs catalysis at low substrate concentration.
